Our source for the EC50 values is article PMC10783514, “Synthesis of peptide–siRNA conjugates via internal sulfonylphosphoramidate modifications and evaluation of their in vitro activity” (Nucleic Acids Research, 2023).

SMILES strings stand for the structures.

This experiment has as its target T1, human GLP1R (Homo sapiens, UniProt P43220).
T1 construct: expressed in transfected cells
Put plainly: GLP1R activity assay (CRE/luciferase reporter, cAMP potency). The experiment is classed as cell-based. The following applies: BHK cells stably co-expressing human GLP1R and CRE luciferase reporter; 3 h at 37°C; 8 concentrations; four-parameter logistic fit (Hill slope = 1); mean of n = 3 independent experiments; read-out: EC50, activation of GLP1R. (In general: A reporter such as luciferase makes a cellular process visible.)

T1 sequence (P43220 24-463): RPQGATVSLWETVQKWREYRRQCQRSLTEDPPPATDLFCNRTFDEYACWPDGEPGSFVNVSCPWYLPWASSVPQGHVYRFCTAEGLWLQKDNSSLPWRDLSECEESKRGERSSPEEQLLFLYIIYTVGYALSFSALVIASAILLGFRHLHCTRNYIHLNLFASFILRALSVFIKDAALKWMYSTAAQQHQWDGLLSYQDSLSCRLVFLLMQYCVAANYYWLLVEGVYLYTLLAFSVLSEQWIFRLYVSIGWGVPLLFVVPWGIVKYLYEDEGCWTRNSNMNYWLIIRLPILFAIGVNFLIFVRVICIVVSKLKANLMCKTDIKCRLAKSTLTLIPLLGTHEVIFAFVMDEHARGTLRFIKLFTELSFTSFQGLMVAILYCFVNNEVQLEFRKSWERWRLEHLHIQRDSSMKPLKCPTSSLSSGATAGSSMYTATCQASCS
Procedure: GLP1R activity was measured through cyclic adenosine monophosphate (cAMP) potency using a clonal BHK cell line that stably co-express human GLP1R and the cAMP response element (CRE) luciferase reporter gene, essentially as previously reported ([33]). Briefly, frozen stocks of assay-ready cells were thawed to 37°C, washed once with PBS, and diluted to 100 000 cells/ml in assay buffer (DMEM without phenol red supplemented with 1× GlutaMAX, 10 mM HEPES, 1 w/v% ovalbumin, and 0.1 v/v% Pluronic F-68). Serial dilutions (10-fold dilutions in assay buffer, 8 concentrations for each compound) were made for GLP1–siRNA conjugates and free peptides in 96 well dilution plates using a Biomek i7 liquid handler. Then, 50 μl of each dilution were transferred to 96-well assay plates to which 50 μl of the diluted cell suspension was added (5000 cells/well). Plates were incubated for 3 h at 37°C in 5% CO2, then left at room temperature for 5 min before 100 μl SteadyLite Plus (PerkinElmer) was added to each well. Plates were sealed from light and incubated at room temperature for 30 min while gently shaking before luminescence was detected on a Biotek Synergy 2 plate reader.
This is performed by using a luciferase reporter under the control of CRE in recombinant BHK cells constitutively expressing human GLP1R. […]

For orientation: EC50 means the midpoint of the concentration-response curve. On to `CC[C@H](C)[C@H](NC(=O)[C@H](Cc1ccccc1)NC(=O)[C@H](CCC(=O)O)NC(=O)[C@H](CCCNC(=N)N)NC(=O)[C@H](C)NC(=O)[C@H](C)NC(=O)[C@H](CCC(N)=O)NC(=O)CNC(=O)[C@H](CCC(=O)O)NC(=O)[C@H](CC(C)C)NC(=O)[C@H](Cc1ccc(O)cc1)NC(=O)[C@H](CO)NC(=O)[C@H](CO)NC(=O)[C@@H](NC(=O)[C@H](CC(=O)O)NC(=O)[C@H](CO)NC(=O)[C@@H](NC(=O)[C@H](Cc1ccccc1)NC(=O)[C@@H](NC(=O)CNC(=O)[C@H](CCC(=O)O)NC(=O)[C@H](C)NC(=O)[C@@H](N)Cc1c[nH]cn1)[C@@H](C)O)[C@@H](C)O)C(C)C)C(=O)N[C@@H](C)C(=O)N[C@@H](Cc1c[nH]c2ccccc12)C(=O)N[C@@H](CC(C)C)C(=O)N[C@H](C(=O)N[C@@H](CCCNC(=N)N)C(=O)NCC(=O)N[C@@H](CCCNC(=N)N)C(=O)NCC(=O)N[C@@H](CCCCN)C(=O)O)C(C)C` [A], for which the half-maximal effective concentration (EC50) came to 9 pM.
